The test system of this assay is MV-4-11 cells. Description: Gene expression microarray analysis (Affymetrix PrimeView) and GSEA. Type of assay: cell-based, human. Also noted: RFU PODN (11730768_x_at) / Fold change /veh PODN (11730768_x_at) / RFU LINC00158 (11744669_a_at) / Fold change /veh LINC00158 (11744669_a_at) / RFU DUSP10 (11751237_a_at) / Fold change /veh DUSP10 (11751237_a_at) / RFU ID3 (11757404_x_at) / Fold change /veh ID3 (11757404_x_at) / RFU PLEKHG5 (11737974_s_at) / Fold change /veh PLEKHG5 (11737974_s_at) / RFU LRRC4B (11730491_at) / Fold change /veh LRRC4B (11730491_at) / RFU GIMAP4 (11747438_a_at) / Fold change /veh GIMAP4 (11747438_a_at) / RFU KRT8 (11758183_x_at) / Fold change /veh KRT8 (11758183_x_at) / RFU CNN1 (11734310_a_at) / Fold change /veh CNN1 (11734310_a_at) / RFU VPS37D (11726825_at) / Fold change /veh VPS37D (11726825_at) / RFU C10orf10 (11716522_x_at) / Fold change /veh C10orf10 (11716522_x_at) / RFU KIR2DL2 /// KIR2DL4 /// KIR2DL5A /// KIR2DL5B /// KIR2DS1 /// KIR2DS2 /// KIR2DS3 /// KIR2DS4 /// KIR3DL3 /// KIR3DL3 /// KIR3DS1 (11738374_at) / Fold change /veh KIR2DL2 /// KIR2DL4 /// KIR2DL5A /// KIR2DL5B /// KIR2DS1 /// KIR2DS2 /// KIR2DS3 /// KIR2DS4 /// KIR3DL3 /// KIR3DL3 /// KIR3DS1 (11738374_at) / RFU C1QL1 (11718748_at) / Fold change /veh C1QL1 (11718748_at) / RFU TMPRSS4 (11747572_a_at) / Fold change /veh TMPRSS4 (11747572_a_at) / RFU HAMP (11756126_x_at) / Fold change /veh HAMP (11756126_x_at) / RFU RNFT2 (11725882_a_at) / Fold change /veh RNFT2 (11725882_a_at) / RFU NR4A2 (11747474_a_at) / Fold change /veh NR4A2 (11747474_a_at) / RFU ABCC12 (11746883_a_at) / Fold change /veh ABCC12 (11746883_a_at) / RFU TMEM136 (11760407_x_at) / Fold change /veh TMEM136 (11760407_x_at) / RFU CLDN22 /// WWC2 (11732394_at) / Fold change /veh CLDN22 /// WWC2 (11732394_at) / RFU HLA-DPB1 (11760878_x_at) / Fold change /veh HLA-DPB1 (11760878_x_at) / RFU SPINT1 (11716480_a_at) / Fold change /veh SPINT1 (11716480_a_at) / RFU GAP43 (11754022_s_at) / Fold change /veh GAP43 (11754022_s_at) / RFU A4GNT (11735810_at) / Fold change /veh A4GNT (11735810_at) / RFU PRB3 (11715151_x_at) / Fold change /veh PRB3 (11715151_x_at) / RFU TUBB4B (11761932_at) / Fold change /veh TUBB4B (11761932_at) / RFU CAPN14 (11732068_a_at) / Fold change /veh CAPN14 (11732068_a_at) / RFU TMCC2 (11721928_a_at) / Fold change /veh TMCC2 (11721928_a_at) / RFU IRGQ (11745062_a_at) / Fold change /veh IRGQ (11745062_a_at) / RFU FAM174B (11720279_a_at) / Fold change /veh FAM174B (11720279_a_at) / RFU TMPRSS4 (11748680_a_at) / Fold change /veh TMPRSS4 (11748680_a_at) / RFU FAM212B (11763350_a_at) / Fold change /veh FAM212B (11763350_a_at) / RFU PLEKHG5 (11743358_a_at) / Fold change /veh PLEKHG5 (11743358_a_at) / RFU ZSCAN30 (11745921_a_at) / Fold change /veh ZSCAN30 (11745921_a_at) / RFU CMKLR1 (11741424_a_at) / Fold change /veh CMKLR1 (11741424_a_at) / RFU LOC101060620 /// MAPK8IP1 (11723275_at) / Fold change /veh LOC101060620 /// MAPK8IP1 (11723275_at) / RFU SPTSSB (11747773_x_at) / Fold change /veh SPTSSB (11747773_x_at) / RFU PRSS12 (11739890_at) / Fold change /veh PRSS12 (11739890_at) / RFU BIN1 (11741810_x_at) / Fold change /veh BIN1 (11741810_x_at) / RFU WNT11 (11732464_a_at) / Fold change /veh WNT11 (11732464_a_at) / RFU C10orf10 (11716521_a_at) / Fold change /veh C10orf10 (11716521_a_at) / RFU C5orf56 (11738089_at) / Fold change /veh C5orf56 (11738089_at) / RFU CYB561 (11721691_x_at) / Fold change /veh CYB561 (11721691_x_at) / RFU ANKRD19P (11752326_a_at) / Fold change /veh ANKRD19P (11752326_a_at) / RFU OR2T12 /// OR2T33 /// OR2T8 (11738714_s_at) / Fold change /veh OR2T12 /// OR2T33 /// OR2T8 (11738714_s_at) / RFU VCAN (11748164_a_at) / Fold change /veh VCAN (11748164_a_at) / RFU JSRP1 (11732532_at) / Fold change /veh JSRP1 (11732532_at) / RFU KRTAP10-11 (11738290_x_at) / Fold change /veh KRTAP10-11 (11738290_x_at) / RFU MYO3A (11730013_a_at) / Fold change /veh MYO3A (11730013_a_at) / RFU EBF3 (11725865_a_at) / Fold change /veh EBF3 (11725865_a_at) / RFU CAMK2N1 (11719241_x_at) / Fold change /veh CAMK2N1 (11719241_x_at) / RFU C5orf56 (11738088_a_at) / Fold change /veh C5orf56 (11738088_a_at) / RFU OLFML3 (11715873_a_at) / Fold change /veh OLFML3 (11715873_a_at) / RFU LOC100653217 /// NTM (11731650_a_at) / Fold change /veh LOC100653217 /// NTM (11731650_a_at) / RFU MAPK11 (11762145_a_at) / Fold change /veh MAPK11 (11762145_a_at) / RFU FIZ1 (11724087_x_at) / Fold change /veh FIZ1 (11724087_x_at) / RFU OASL (11726364_x_at) / Fold change /veh OASL (11726364_x_at) / RFU SOX15 (11748057_x_at) / Fold change /veh SOX15 (11748057_x_at) / RFU CD79A (11719716_a_at) / Fold change /veh CD79A (11719716_a_at) / RFU HIST1H1D (11736915_at) / Fold change /veh HIST1H1D (11736915_at) / RFU CASKIN2 (11723855_a_at) / Fold change /veh CASKIN2 (11723855_a_at) / RFU LOC730098 (11760151_x_at) / Fold change /veh LOC730098 (11760151_x_at) / RFU OR4N2 (11742367_at) / Fold change /veh OR4N2 (11742367_at) / RFU PRRT2 (11749266_a_at) / Fold change /veh PRRT2 (11749266_a_at) / RFU SNX32 (11753110_a_at) / Fold change /veh SNX32 (11753110_a_at) / RFU CDHR5 (11726645_a_at) / Fold change /veh CDHR5 (11726645_a_at) / RFU RCAN1 (11760418_a_at) / Fold change /veh RCAN1 (11760418_a_at) / RFU FAM167A (11723789_a_at) / Fold change /veh FAM167A (11723789_a_at) / RFU FAM26E (11764081_at) / Fold change /veh FAM26E (11764081_at) / RFU ISYNA1 (11749810_s_at) / Fold change /veh ISYNA1 (11749810_s_at) / RFU ACY1 (11761880_at) / Fold change /veh ACY1 (11761880_at) / RFU 11764098_at / Fold change /veh 11764098_at / RFU SAMD14 (11745864_x_at) / Fold change /veh SAMD14 (11745864_x_at) / RFU NPB (11741838_a_at) / Fold change /veh NPB (11741838_a_at) / RFU TMPRSS6 (11731388_a_at) / Fold change /veh TMPRSS6 (11731388_a_at) / RFU KRTAP10-2 (11738614_at) / Fold change /veh KRTAP10-2 (11738614_at) / RFU ARHGAP8 /// PRR5-ARHGAP8 (11727945_x_at) / Fold change /veh ARHGAP8 /// PRR5-ARHGAP8 (11727945_x_at) / RFU KRTAP5-7 /// NADSYN1 (11734609_at) / Fold change /veh KRTAP5-7 /// NADSYN1 (11734609_at) / RFU RASL12 (11751679_a_at) / Fold change /veh RASL12 (11751679_a_at) / RFU CDKN2B (11736163_a_at) / Fold change /veh CDKN2B (11736163_a_at) / RFU PRF1 (11729649_at) / Fold change /veh PRF1 (11729649_at) / RFU, ZNF638 /// ZNF638-IT1 / Fold change vs veh, ZNF638 /// ZNF638-IT1 / RFU, PANK3 / Fold change vs veh, PANK3 / RFU, SH3YL1 / Fold change vs veh, SH3YL1 / RFU, ZEB2 / Fold change vs veh, ZEB2 / RFU, NRIP1 / Fold change vs veh, NRIP1 / RFU, PTTG1IP / Fold change vs veh, PTTG1IP / RFU, CAPN2 / Fold change vs veh, CAPN2 / RFU, MED14 / Fold change vs veh, MED14 / RFU, SNORA58 / Fold change vs veh, SNORA58 / RFU, C1orf63 / Fold change vs veh, C1orf63 / RFU, LRRFIP1 / Fold change vs veh, LRRFIP1 / RFU, NDUFAF7 / Fold change vs veh, NDUFAF7 / RFU, SLC12A2 / Fold change vs veh, SLC12A2 / RFU, IBTK / Fold change vs veh, IBTK / RFU, ESF1 / Fold change vs veh, ESF1 / Fold change vs veh, TMEM50B / RFU, TAOK1 / Fold change vs veh, TAOK1 / RFU, ACBD3 / Fold change vs veh, ACBD3 / RFU, TMA16 / Fold change vs veh, TMA16 / RFU, RWDD3 / Fold change vs veh, RWDD3 / RFU, BCAT1 / Fold change vs veh, BCAT1 / RFU, EDEM3 / Fold change vs veh, EDEM3 / RFU, TMEM33 / Fold change vs veh, TMEM33 / RFU, WDR75 / Fold change vs veh, WDR75 / RFU, AHCTF1 / Fold change vs veh, AHCTF1 / RFU, TFRC / Fold change vs veh, TFRC / RFU, ZDHHC17 / Fold change vs veh, ZDHHC17 / RFU, NOM1 / Fold change vs veh, NOM1 / RFU, ARL8B / Fold change vs veh, ARL8B / RFU, ZBTB11 / Fold change vs veh, ZBTB11 / RFU, TAMM41 / Fold change vs veh, TAMM41 / RFU, KIAA1704 /// LOC100996395 / Fold change vs veh, KIAA1704 /// LOC100996395 / RFU, ING1 / Fold change vs veh, ING1 / RFU, TRMT61B / Fold change vs veh, TRMT61B / RFU, FUBP3 / Fold change vs veh, FUBP3 / RFU, TP53 / Fold change vs veh, TP53 / RFU, TNKS2 / Fold change vs veh, TNKS2 / RFU, ZFP14 / Fold change vs veh, ZFP14 / RFU, ACTR2 / Fold change vs veh, ACTR2 / RFU, PPP3R1 / Fold change vs veh, PPP3R1 / RFU, PIK3R1 / Fold change vs veh, PIK3R1 / RFU, HNRNPA1 / Fold change vs veh, HNRNPA1 / RFU, RNF170 / Fold change vs veh, RNF170 / RFU, ZNF28 / Fold change vs veh, ZNF28 / RFU, RNGTT / Fold change vs veh, RNGTT / RFU, OGT / Fold change vs veh, OGT / RFU, BRD1 / Fold change vs veh, BRD1 / RFU, MARS / Fold change vs veh, MARS / RFU, ZNF655 / Fold change vs veh, ZNF655 / RFU, FAHD1 / Fold change vs veh, FAHD1 / RFU, BDP1 / Fold change vs veh, BDP1 / RFU, LRRCC1 / Fold change vs veh, LRRCC1 / RFU, ARID1A / Fold change vs veh, ARID1A / RFU, ZNF146 / Fold change vs veh, ZNF146 / RFU, ZNF330 / Fold change vs veh, ZNF330 / RFU, GPN3 / Fold change vs veh, GPN3 / RFU, C9orf123 / Fold change vs veh, C9orf123 / RFU, N4BP2L2 / Fold change vs veh, N4BP2L2 / RFU, ARFIP1 / Fold change vs veh, ARFIP1 / RFU, FAM179B / Fold change vs veh, FAM179B / RFU, BCL10 / Fold change vs veh, BCL10 / RFU, UHRF1BP1L / Fold change vs veh, UHRF1BP1L / RFU, BET1 / Fold change vs veh, BET1 / RFU, CNOT2 / Fold change vs veh, CNOT2 / RFU, ZNF268 / Fold change vs veh, ZNF268 / Fold change vs veh, ZNF507 / RFU, DGCR2 / Fold change vs veh, DGCR2 / RFU, WDSUB1 / Fold change vs veh, WDSUB1 / Fold change vs veh, HSP90B1 /// MIR3652 / RFU, ADSS / Fold change vs veh, ADSS / RFU, GK / Fold change vs veh, GK / RFU, ZNF148 / Fold change vs veh, ZNF148 / RFU, TAF9 / Fold change vs veh, TAF9 / RFU, SLC1A5 / Fold change vs veh, SLC1A5 / RFU, SLMO2 / Fold change vs veh, SLMO2 / RFU, ABCC4 / Fold change vs veh, ABCC4 / RFU, LOC101060439 /// RAP1B / Fold change vs veh, LOC101060439 /// RAP1B / RFU, RFX7 / Fold change vs veh, RFX7 / RFU, GTPBP10 / Fold change vs veh, GTPBP10 / RFU, CNEP1R1 / Fold change vs veh, CNEP1R1 / RFU, BIVM-ERCC5 /// ERCC5 / Fold change vs veh, BIVM-ERCC5 /// ERCC5 / RFU, ILF3 / Fold change vs veh, ILF3 / RFU 11762660_at / Fold change /veh 11762660_at / RFU VCAN (11757783_s_at) / Fold change /veh VCAN (11757783_s_at) / RFU DDX43 (11728927_at) / Fold change /veh DDX43 (11728927_at) / RFU KRT8 (11758188_x_at) / Fold change /veh KRT8 (11758188_x_at) / RFU NKD1 (11759106_at) / Fold change /veh NKD1 (11759106_at) / RFU SRD5A1 (11742802_a_at) / Fold change /veh SRD5A1 (11742802_a_at) / RFU TPSAB1 /// TPSB2 (11721975_s_at) / Fold change /veh TPSAB1 /// TPSB2 (11721975_s_at) / RFU GSTM3 (11746129_a_at) / Fold change /veh GSTM3 (11746129_a_at) / RFU IL23R (11737362_x_at) / Fold change /veh IL23R (11737362_x_at) / RFU TMEM51 (11727254_a_at) / Fold change /veh TMEM51 (11727254_a_at) / RFU PIWIL2 (11732686_x_at) / Fold change /veh PIWIL2 (11732686_x_at) / RFU ORM1 (11744905_x_at) / Fold change /veh ORM1 (11744905_x_at) / RFU CCDC152 (11743942_at) / Fold change /veh CCDC152 (11743942_at) / RFU ECM1 (11717891_a_at) / Fold change /veh ECM1 (11717891_a_at) / RFU IL23R (11748794_a_at) / Fold change /veh IL23R (11748794_a_at) / RFU TNFAIP8L3 (11732012_x_at) / Fold change /veh TNFAIP8L3 (11732012_x_at) / RFU MBOAT4 (11741988_at) / Fold change /veh MBOAT4 (11741988_at) / RFU 11764193_at / Fold change /veh 11764193_at / RFU TMEM53 (11763286_at) / Fold change /veh TMEM53 (11763286_at) / RFU MAGEB2 (11727129_at) / Fold change /veh MAGEB2 (11727129_at) / RFU TMEM200A (11744735_a_at) / Fold change /veh TMEM200A (11744735_a_at) / RFU CCDC152 (11751479_a_at) / Fold change /veh CCDC152 (11751479_a_at) / RFU FAM211A (11726209_a_at) / Fold change /veh FAM211A (11726209_a_at) / RFU RGS16 (11746705_a_at) / Fold change /veh RGS16 (11746705_a_at) / RFU VCAN (11755009_s_at) / Fold change /veh VCAN (11755009_s_at) / RFU RHOB (11743442_s_at) / Fold change /veh RHOB (11743442_s_at) / RFU RGS16 (11720943_a_at) / Fold change /veh RGS16 (11720943_a_at) / RFU RGS16 (11720944_at) / Fold change /veh RGS16 (11720944_at) / RFU, VPS4B / Fold change vs veh, VPS4B / RFU, CREB1 / Fold change vs veh, CREB1 / RFU, DNAJC13 / Fold change vs veh, DNAJC13 / RFU, GNAQ / Fold change vs veh, GNAQ / RFU, CDK5R1 / Fold change vs veh, CDK5R1 / RFU, ZRANB3 / Fold change vs veh, ZRANB3 / RFU, CUL4A / Fold change vs veh, CUL4A / RFU, CCNY / Fold change vs veh, CCNY / RFU, UFL1 / Fold change vs veh, UFL1 / RFU, COG3 / Fold change vs veh, COG3 / RFU, DIAPH2 / Fold change vs veh, DIAPH2 / RFU, SKA2 / Fold change vs veh, SKA2 / RFU, AFF3 / Fold change vs veh, AFF3 / RFU, LMF1 / Fold change vs veh, LMF1 / RFU, IPO11 / Fold change vs veh, IPO11 / RFU, DFFB / Fold change vs veh, DFFB / RFU, FOXP1 / Fold change vs veh, FOXP1 / RFU, CARD8 / Fold change vs veh, CARD8 / RFU, STRN3 / Fold change vs veh, STRN3 / RFU, ADK / Fold change vs veh, ADK / RFU, RASSF2 / Fold change vs veh, RASSF2 / RFU, WIPF1 / Fold change vs veh, WIPF1 / RFU, LARP1B / Fold change vs veh, LARP1B / RFU, RASA1 / Fold change vs veh, RASA1 / RFU, RB1 / Fold change vs veh, RB1 / RFU, PPFIA1 / Fold change vs veh, PPFIA1 / RFU, MAT2A / Fold change vs veh, MAT2A / RFU, CCT5 / Fold change vs veh, CCT5 / RFU, WDR92 / Fold change vs veh, WDR92 / RFU, CUX1 / Fold change vs veh, CUX1 / RFU, TTC7A / Fold change vs veh, TTC7A / RFU, TMEM135 / Fold change vs veh, TMEM135 / RFU, DEPTOR / Fold change vs veh, DEPTOR / RFU, CPM / Fold change vs veh, CPM / RFU, DNAJB6 / Fold change vs veh, DNAJB6 / RFU, CACNA2D3 / Fold change vs veh, CACNA2D3 / RFU, DTX4 / Fold change vs veh, DTX4 / RFU, TFCP2 / Fold change vs veh, TFCP2 / RFU, GMCL1 /// GMCL1P1 / Fold change vs veh, GMCL1 /// GMCL1P1 / RFU, AEBP2 / Fold change vs veh, AEBP2 / RFU, SNHG1 /// SNORD22 /// SNORD25 /// SNORD26 /// SNORD27 /// SNORD28 /// SNORD29 /// SNORD31 / Fold change vs veh, SNHG1 /// SNORD22 /// SNORD25 /// SNORD26 /// SNORD27 /// SNORD28 /// SNORD29 /// SNORD31 / Fold change (Aza/veh), C12orf56 (ProbeSet 11735607_a_at) / Fold change (ACY-1035/veh), C12orf56 (ProbeSet 11735607_a_at) / Fold change (Aza/veh), FGFR1OP (ProbeSet 11751329_s_at) / Fold change (ACY-1035/veh), FGFR1OP (ProbeSet 11751329_s_at) / Fold change (Aza/veh), VPS36 (ProbeSet 11739960_a_at) / Fold change (ACY-1035/veh), VPS36 (ProbeSet 11739960_a_at) / RFU SYPL1 (11715823_x_at) / Fold change /veh SYPL1 (11715823_x_at) / RFU IGFBP7 (11715501_s_at) / Fold change /veh IGFBP7 (11715501_s_at) / RFU REEP3 (11722064_at) / Fold change /veh REEP3 (11722064_at) / RFU IGLL1 (11728026_x_at) / Fold change /veh IGLL1 (11728026_x_at): dose or concentration left out as unconfirmed. To be noted: ProbeSet 11743362_s_at; LIST B.

Regarding `Nc1ccc(-c2cccs2)cc1NC(=O)c1ccc2c(c1)cc(C1CC1)n2CCN1CCOCC1` [ACY-1035], the “RFU, ADSS” value stood at 662.69 RFU.

The values above are taken from PMC5218480 (PLoS ONE, 2017).
